Reference: article PMC10108740 (Journal of Medicinal Chemistry, 2023)
Where two headings read alike, the source gives them in different places.

Experiments:
[1] = tested on: SARS-CoV-2 WA1 (USA-WA1/2020); test: Antiviral immunofluorescence assay, SARS-CoV-2 WA1 in Calu-3 cells; assay type: cell-based; details: for EC50 / EC90: immunofluorescence, 44 hpi, mean ± SD; for EC50: read-out: EC50
[2] = tested on: SARS-CoV-2 (WA-1); test: Antiviral immunofluorescence assay, SARS-CoV-2 WA1 in Huh7.5 cells; assay type: cell-based
[3] = tested on: SARS-CoV-2 (WA-1); test: Antiviral immunofluorescence assay, SARS-CoV-2 WA1 in Vero-TMPRSS2 cells; assay type: cell-based
[4] = in vitro; details: human
[5] = in vitro; details: human; remark: listed apart in the source
[6] = in vitro
Experimental: (§1) Cells were seeded as per SARS-CoV-2 infection studies in opaque walled 96-well cell culture plates and incubated overnight for Huh7.5 and Vero-TMPRSS2 cells and for an additional 24h for Calu-3 cells. Compounds or controls were added at the indicated concentrations. Cells were incubated for 48h for Huh7.5 cells, 40–44h for Calu-3 cells, or 30–32h for Vero-TMPRSS2 cells at 37 °C and 5% CO2, an equal volume of CellTiter-Glo reagent (Cat. #G7570, Promega) or CellTiter-Glo 2.0 reagent (Cat. #G9241, Promega) was added and mixed, and luminescence was recorded on a Veritas Microplate Luminometer (Turner BioSystems) according to manufacturer recommendations. Percent viability was calculated compared to DMSO controls, and CC50 values were calculated using Prism 9.
(§2) Calu-3 cells were treated for 44h (A), Huh7.5 cells were treated for 48h (B), and Vero-
(§3) TMPRSS2 cells were treated for 38h (C) as in infection assays for each cell type. Cell viability
(§4) was measured by CellTiter-Glo assay and reported as % cell viability relative to DMSO controls.
(§5) Best fit curves calculated in Graphpad Prism 9 were used
(§6) to compute cytotoxic concentration 50% (CC50) values in Tables 1-3.

[7] = tested on: SARS-CoV-2 (WA-1); test: Antiviral immunofluorescence assay, SARS-CoV-2 WA1 in human pluripotent stem cell-derived lung cells; assay type: cell-based; details: 24 hpi
[8] = in vitro; details: human; remark: listed apart in the source
[9] = tested on: SARS-CoV-2 WA1 (USA-WA1/2020); set-up: method as in Schooley et al.[24]; details: Calu-3 cells, ref Schooley et al.[24]; cited from earlier work
[10] = tested on: Calu-3 cells; details: cited from earlier work
[11] = tested on: Calu-3 cells; test: Cell viability assay (CellTiter-Glo), Calu-3 cells; details: uninfected Calu-3 cells, 44h
[12] = tested on: Huh7.5 cells; test: Cell viability assay (CellTiter-Glo), Huh7.5 cells; details: uninfected Huh7.5 cells, 48h
[13] = tested on: Vero-TMPRSS2 cells; test: Cell viability assay (CellTiter-Glo), Vero-TMPRSS2 cells; details: uninfected Vero-TMPRSS2 cells, 38h
Experimental: as §1, §2, §3, §4, §5, §6

[14] = tested on: human pluripotent stem cell-derived lung cells; test: Cytotoxicity by relative number of nuclei, human pluripotent stem cell-derived lung cells; details: PSC-lung cells, relative number of nuclei (IF) vs vehicle-treated wells
[15] = Severe acute respiratory syndrome coronavirus 2, Calu-3, WA1, Calu-3 cells
[16] = Severe acute respiratory syndrome coronavirus 2, WA1, Calu-3 cells
[17] = Severe acute respiratory syndrome coronavirus 2, WA-1, Huh7.5 cells, immunofluorescence, 48 hpi, read-out: EC50
[18] = Severe acute respiratory syndrome coronavirus 2, WA-1, Huh7.5 cells, immunofluorescence, 48 hpi, read-out: EC90
[19] = Severe acute respiratory syndrome coronavirus 2, Vero/TMPRSS2
[20] = Severe acute respiratory syndrome coronavirus 2, WA-1, Vero-TMPRSS2 cells, immunofluorescence, 38 hpi
[21] = Severe acute respiratory syndrome coronavirus 2, WA-1, PSC-lung cells (ALDA 31616 and H9)
[22] = WA-1, Huh7.5 cells, immunofluorescence, 48 hpi, read-out: EC50
[23] = WA-1, Huh7.5 cells, immunofluorescence, 48 hpi, read-out: EC90
[24] = WA-1, Vero-TMPRSS2 cells, immunofluorescence, 38 hpi
[25] = WA-1, Vero-TMPRSS2 cells, immunofluorescence, 38 hpi, read-out: EC50
[26] = WA-1, PSC-lung cells (ALDA 31616 and H9)
[27] = Severe acute respiratory syndrome coronavirus 2, Huh7.5

Compound	EC50 [1, 15] [nM]	EC90 [1, 16] [nM]	EC50 [2, 17] [nM]	EC90 [2, 18] [nM]	EC50 [3, 19] [nM]	EC90 [3, 20] [nM]	CC50 at 44 h [4] [nM]	CC50 at 48 h [5] [nM]	CC50 ([6]; chlorocebus aethiops) [nM]	further results
CCCCCCCCCCCCCCCCCCOCC(COP(=O)(O)OC[C@H]1O[C@@](C#N)(c2ccc3c(N)ncnn23)[C@H](O)[C@@H]1O)OCc1ccccc1 (stereo partly drawn) [Compound 9c, ((2R,3S,4R,5R)-5-(4-aminopyrrolo[2,1-f][1,2,4]triazin-7-yl)-5-cyano-3,4-dihydroxytetrahydrofuran-2-yl)methyl ((R,S)-2-(benzyloxy)-3-(octadecyloxy)propyl) hydrogen phosphate]	172 ± 78	1070 ± 1040	175 ± 120	519 ± 256	238 ± 74	613 ± 84	92100	64600	> 100000	
CCCCCCCCCCCCCCCCCCOC[C@H](COP(=O)(O)OC[C@H]1O[C@@](C#N)(c2ccc3c(N)ncnn23)[C@H](O)[C@@H]1O)OCc1cccc(F)c1 [Compound 9d, ((2R,3S,4R,5R)-5-(4-Aminopyrrolo[2,1-f][1,2,4]triazin-7-yl)-5-cyano-3,4-dihydroxytetrahydrofuran-2-yl)methyl ((R)-2-((3-fluorobenzyl)oxy)-3-(octadecyloxy)propyl) hydrogen phosphate]	224 ± 129	506 ± 204	191 ± 77	488 ± 199	271 ± 22	629 ± 61	94700	75000	> 100000	
CCCCCCCCCCCCCCCCCCOC[C@H](COP(=O)(O)OC[C@H]1O[C@@](C#N)(c2ccc3c(N)ncnn23)[C@H](O)[C@@H]1O)OCc1ccc(OC)c(F)c1 [Compound 9g, ((2R,3S,4R,5R)-5-(4-Aminopyrrolo[2,1-f][1,2,4]triazin-7-yl)-5-cyano-3,4-dihydroxytetrahydrofuran-2-yl)methyl ((R)-2-((3-fluoro-4-methoxybenzyl)oxy)-3-(octadecyloxy)propyl) hydrogen phosphate]	77 ± 27	145 ± 54	60 ± 37	212 ± 86	178 ± 57	294 ± 62	50500	70100	> 100000	EC50 [7, 21]: 167 ± 55 nM; EC90 [7, 21]: 348 ± 121 nM; CC50 at 24 h [8]: > 20000 nM
CCCCCCCCCCCCCCCCCCOC[C@H](COP(=O)(O)OC[C@H]1O[C@@](C#N)(c2ccc3c(N)ncnn23)[C@H](O)[C@@H]1O)OCCCCCCCC [Compound 9h, ((2R,3S,4R,5R)-5-(4-Aminopyrrolo[2,1-f][1,2,4]triazin-7-yl)-5-cyano-3,4-dihydroxytetrahydrofuran-2-yl)methyl ((R)-3-(octadecyloxy)-2-(octyloxy)propyl) hydrogen phosphate]	391 ± 39	2500 ± 1240	564 ± 252	3360 ± 2860	775 ± 245	1790 ± 140	> 100000	> 100000	> 100000	
CCC(CC)COC(=O)[C@H](C)N[P@](=O)(OC[C@H]1O[C@@](C#N)(c2ccc3c(N)ncnn23)[C@H](O)[C@@H]1O)Oc1ccccc1 [RDV, remdesivir]										EC50 [9]: 230 nM; EC90 [9]: 310 nM; CC50 ([10]; Calu-3 cells, ref Schooley et al.[24]): > 100000 nM
N#C[C@@]1(c2ccc3c(N)ncnn23)O[C@H](CO)[C@@H](O)[C@H]1O [RVn, GS-441524]										CC50 [10]: > 100000 nM
CCCCCCCCCCCCCCCCOC[C@H](COP(=O)(O)OC[C@H]1O[C@@](C#N)(c2ccc3c(N)ncnn23)[C@H](O)[C@@H]1O)OCc1ccc(OC)c(F)c1 [Compound 11g, ((2R,3S,4R,5R)-5-(4-Aminopyrrolo[2,1-f][1,2,4]triazin-7-yl)-5-cyano-3,4-dihydroxytetrahydrofuran-2-yl)methyl ((R)-2-((3-fluoro-4-methoxybenzyl)oxy)-3-(hexadecyloxy)propyl) hydrogen phosphate]	51 ± 18	240 ± 131	50 ± 22	103 ± 47	406 ± 87	858 ± 249	75700	59000	> 100000	EC50 [7, 21]: 130 ± 56 nM; EC90 [7, 21]: 267 ± 19 nM; CC50 at 24 h [8]: > 20000 nM
CCCCCCCCCCCCCCCCCCOC[C@H](COP(=O)(O)OC[C@H]1O[C@@](C#N)(c2ccc3c(N)ncnn23)[C@H](O)[C@@H]1O)OCCC1CCCCC1 [Compound 9i, ((2R,3S,4R,5R)-5-(4-Aminopyrrolo[2,1-f][1,2,4]triazin-7-yl)-5-cyano-3,4-dihydroxytetrahydrofuran-2-yl)methyl ((R)-2-(2-cyclohexylethoxy)-3-(octadecyloxy)propyl) hydrogen phosphate]	144 ± 20	1830 ± 1040	92 ± 26	1310 ± 310	296 ± 10	582 ± 14	98700	69800		CC50 ([6]; African green monkey): > 100000 nM
((2R,3S,4R,5R)-5-(4-Aminopyrrolo[2,1-f][1,2,4]triazin-7-yl)-5-cyano-3,4-dihydroxytetrahydrofuran-2-yl)methyl ((R)-2-(benzyloxy)-7-(tetradec-5-en-1-yloxy)heptyl) hydrogen phosphate [Compound 10a]										EC90 ([1]; WA1, Calu-3 cells): 324 ± 127 nM; EC50 ([1]; WA1, Calu-3 cells): 193 ± 58 nM; EC50 [2, 22]: 109 ± 55 nM; EC90 [2, 23]: 224 ± 100 nM; EC90 [3, 24]: 570 ± 54 nM; EC50 [3, 25]: 293 ± 20 nM; EC50 [7, 26]: 267 ± 118 nM; EC90 [7, 26]: 555 ± 250 nM; CC50 [11]: 79200 nM; CC50 [12]: > 100000 nM; CC50 [13]: > 100000 nM; CC50 [14]: > 20000 nM
CCCCCCCCCCCCCCOC[C@H](COP(=O)(O)OC[C@H]1O[C@@](C#N)(c2ccc3c(N)ncnn23)[C@H](O)[C@@H]1O)OCc1ccccc1 [Compound 12a, ((2R,3S,4R,5R)-5-(4-Aminopyrrolo[2,1-f][1,2,4]triazin-7-yl)-5-cyano-3,4-dihydroxytetrahydrofuran-2-yl)methyl ((R)-2-(benzyloxy)-3-(tetradecyloxy)propyl) hydrogen phosphate]	213 ± 97	575 ± 251			909 ± 27	1630 ± 120	> 100000	> 100000	> 100000	EC50 [2, 27]: 157 ± 400 nM; EC90 [2, 27]: 479 ± 19 nM
CCCCCCCCCCCCCCCCOC[C@H](COP(=O)(O)OC[C@H]1O[C@@](C#N)(c2ccc3c(N)ncnn23)[C@H](O)[C@@H]1O)OCc1ccccc1 [Compound 11a, ((2R,3S,4R,5R)-5-(4-Aminopyrrolo[2,1-f][1,2,4]triazin-7-yl)-5-cyano-3,4-dihydroxytetrahydrofuran-2-yl)methyl ((R)-2-(benzyloxy)-3-(hexadecyloxy)propyl) hydrogen phosphate]	95 ± 12	716 ± 270	131 ± 66	268 ± 221	402 ± 84	798 ± 154	88700	> 100000	> 100000	
((2R,3S,4R,5R)-5-(4-Aminopyrrolo[2,1-f][1,2,4]triazin-7-yl)-5-cyano-3,4-dihydroxytetrahydrofuran-2-yl)methyl ((R)-2-((3-fluoro-4-methoxybenzyl)oxy)-7-(tetradec-5-en-1-yloxy)heptyl) hydrogen phosphate [Compound 10g]										fold better potency ([1]; 3-fluoro-4-methoxybenzyl at sn-2 versus unsubstituted benzyl): 2–3 fold; fold more active than RDV ([1]; Calu-3 cells, based on EC50): 3.3 fold; EC90 ([1]; WA1, Calu-3 cells): 149 ± 117 nM; EC50 ([1]; WA1, Calu-3 cells): 70 ± 3 nM; EC50 [2, 22]: 54 ± 16 nM; EC90 [2, 23]: 95 ± 27 nM; EC90 [3, 24]: 554 ± 54 nM; EC50 [3, 25]: 300 ± 38 nM; EC50 [7, 26]: 82 ± 13 nM; EC90 [7, 26]: 175 ± 16 nM; CC50 [11]: 58700 nM; CC50 [12]: > 100000 nM; CC50 [13]: > 100000 nM; CC50 [14]: > 20000 nM
